In patent US12173026B2, “PRMT5 inhibitors” (Merck Sharp & Dohme LLC, priority 2018, dated 2024):

tested on: symmetric dimethylation of arginine (SDMA) of PRMT5 substrates in MCF-7 cells; test: PRMT5 Cell Target Engagement (TE) Assay; format: cell-based; conditions: Homo sapiens, MCF7, 72 h; MCF-7 cells treated for 3 days; nuclear SDMA by high content imaging; top concentration 10000 nM
Source text: PRMT5 Cell Target Engagement (TE) Assay
The PRMT5 TE assay is a biomarker assay for identifying compounds that inhibit symmetric dimethylation of arginine (SDMA) of PRMT5 substrates. The following substrates have been reported for PRMT5: Histone H2A and H4 R3, Histone H3 R2, Histone 1-13 R8, spliceosome Sm proteins, ribosomal protein RPS10, p53, FEN1, nucleoplasmin, nucleolin, EGFR and EBNA. The assay will focus on detecting symnetrically dimethylated nuclear proteins using high content imaging technology. Detection of the expression of symmetrically dimethylated nuclear proteins is through a mixture of primary rabbit monoclonal antibodies to SDMA (CST 13222) which in turn recognized by an Alexafluor 488 dye-conjugated anti-rabbit IgG secondary antibody. The IN Cell Analyzer 2200 or Opera-Phenix measures nuclear Alexafluor 488 fluorescent dye intensity that is directly related to the level of expression of symmetrically dimethylated nuclear proteins at the single cell level. Nuclear AF488 dye intensities are compared to the mean value for DMSO treated cells (MIN) to report percent of inhibition for each compound-treated well.
In this assay, the cell potency (EC50) of each compound was determined from a ten point (1:3 serial dilution; top compound concentration of 10000 nM) titration curve using the following outlined procedure. Each well of a BD falcon collagen coated black/clear bottom 384-well plate was seeded with 4000 MCF-7 cells in 30 pal media and allowed to attach for 5 hours. Media is ATCC-formulated Eagle's Minimum Essential Medium, Catalog No. 30-2003. The following components were added to the base medium: 0.01 mg/mL human recombinant insulin; fetal bovine serum to a final concentration of 10%. Additional 30 pal of media containing 2× compounds were added to each well. Cells were treated for 3 days in 37° C. CO2 incubator. On day 3, cells were fixed with Cytofix, permeabilized with 0.4% Triton-X-100/Cytofix, and washed with D-PBS without Ca/Mg. Cells were blocked with Licor Odessey blocking reagent for 1 hour at room temperature, followed by incubation with anti-SDMA (1:1000) antibody at 4° C. overnight. 1° antibody was removed, followed by three washings with DPBS without Ca/Mg and 0.05% Tween20. Hoechst (5 μg/mL), Cell Mask deep stain (1:2000) and Alexa488-conjugated goat anti-rabbit IgG (2 μg/mL) was added for 1 hour at room temperature. A final washing step (three washes) was performed before sealing plate for imaging on in Cell Analyzer 2200 or Opera-Phenix. Images from analyzer were uploaded to Columbus for image analysis. IC50 values were determined by 4 parameters robust fit of percent fluorescence units vs. (Log 10) compound concentrations.

Row | SMILES | EC50 [nM]
1 | Nc1nc2cc(C[C@@H]3CC[C@@]4(O)[C@@H]3O[C@@H](n3ccc5c(N)nc(Cl)nc53)[C@@H]4O)ccc2cc1Cl [Example 47, (2R,3R,3aS,6S,6aR)-2-(4-amino-2-chloro-7H-pyrrolo[2,3-d]pyrimidin-7-yl)-6-[(2-amino-3-chloroquinolin-7-yl)methyl]hexahydro-3aH-cyclopenta[b]furan-3,3a-diol] | 1.4
2 | Cc1ncnc2c1ccn2[C@@H]1O[C@@H]2[C@H](Cc3ccc4cc(Br)c(N)nc4c3)CC[C@]2(O)[C@H]1O [Example 8, (2R,3R,3aS,6S,6aR)-6-((2-amino-3-bromoquinolin-7-yl)methyl)-2-(4-methyl-7H-pyrrolo[2,3-d]pyrimidin-7-yl)hexahydro-2H-cyclopenta[b]furan-3,3a-diol] | 0.5
3 | Nc1nc2cc(O[C@H]3CC[C@@]4(O)[C@@H]3O[C@@H](n3ccc5cncnc53)[C@@H]4O)ccc2cc1Br [Example 85, (2R,3R,3aS,6S,6aR)-6-((2-amino-3-bromoquinolin-7-yl)oxy)-2-(7H-pyrrolo[2,3-d]pyrimidin-7-yl)hexahydro-3aH-cyclopenta[b]furan-3,3a-diol] | 32.4
4 | Cc1nc(N)c2ccn([C@@H]3C[C@@H]4[C@H](Cc5ccc6cc(Cl)c(N)nc6c5)CC[C@]4(O)[C@H]3O)c2n1 [Example 31, (1S,2R,3aR,4S,6aR)-2-(4-amino-2-methyl-7H-pyrrolo[2,3-d]pyrimidin-7-yl)-4-((2-amino-3-chloroquinolin-7-yl)methyl) hexahydropentalene-1,6a(1H)-diol 2,2,2-trifluoroacetate] | 0.8
5 | C[C@@]1(O)[C@@H](CCc2ccc3cc(Br)c(N)nc3c2)O[C@@H](n2ccc3c(N)ncnc32)[C@@H]1O [Example 14, (2R,3S,4R,5R)-2-(2-(2-amino-3-bromoquinolin-7-yl)ethyl)-5-(4-amino-7H-pyrrolo[2,3-d]pyrimidin-7-yl)-3-methyltetrahydrofuran-3,4-diol] | 17
6 | Cc1ncnc2c1ccn2[C@@H]1O[C@@H]2[C@@H](Cc3ccc4cc(Br)c(N)nc4c3)OC[C@]2(O)[C@H]1O [Example 134, (2R,3R,3aS,6R,6aR)-6-((2-amino-3-bromoquinolin-7-yl)methyl)-2-(4-methyl-7H-pyrrolo[2,3-d]pyrimidin-7-yl)tetrahydrofuro[3,4-b]furan-3,3a(4H)-diol] | 35.8
7 | Nc1ncnc2c1ccn2[C@@H]1O[C@@H]2[C@@H](Oc3ccc4ccc(NCC5CC5)nc4c3)CC[C@]2(O)[C@H]1O [Example 58, (2R,3R,3aS,6S,6aR)-2-(4-amino-7H-pyrrolo[2,3-d]pyrimidin-7-yl)-6-((2-((cyclopropylmethyl)amino)quinolin-7-yl)oxy)hexahydro-3aH-cyclopenta[b]furan-3,3a-diol] | 1
8 | Cc1nc(C)c2ccn([C@@H]3O[C@@H]4[C@@H](Oc5ccc6cc(Br)c(N)nc6c5)CC[C@]4(O)[C@H]3O)c2n1 [Example 80, (2R,3R,3aS,6S,6aR)-6-((2-amino-3-bromoquinolin-7-yl)oxy)-2-(2,4-dimethyl-7H-pyrrolo[2,3-d]pyrimidin-7-yl)hexahydro-3aH-cyclopenta[b]furan-3,3a-diol 2,2,2-trifluoroacetate] | 97
9 | Cc1cn([C@@H]2O[C@@H]3[C@@H](Oc4ccc5cc(Br)c(N)nc5c4)CC[C@]3(O)[C@H]2O)c2ncnc(N)c12 [Example 60, (2R,3R,3aS,6S,6aR)-6-((2-amino-3-bromoquinolin-7-yl)oxy)-2-(4-amino-5-methyl-7H-pyrrolo[2,3-d]pyrimidin-7-yl)hexahydro-3aH-cyclopenta[b]furan-3,3a-diol] | 1.5
10 | Nc1nc2cc(C[C@@H]3CC[C@@]4(O)[C@@H]3O[C@@H](n3ccc5c(N)ncnc53)[C@@H]4O)cc(F)c2cc1Cl [Example 21, (2R,3R,3aS,6S,6aR)-6-[(2-amino-3-chloro-5-fluoroquinolin-7-yl)methyl]-2-(4-amino-7H-pyrrolo[2,3-d]pyrimidin-7-yl)hexahydro-3aH-cyclopenta[b]furan-3,3a-diol] | 0.5
11 | Cc1nc(N)c2ccn([C@@H]3C[C@@H]4[C@H](Cc5ccc6cc(Br)c(N)nc6c5)CC[C@]4(O)[C@H]3O)c2n1 [Example 37, (1S,2R,3aR,4S,6aR)-2-(4-amino-2-methyl-7H-pyrrolo[2,3-d]pyrimidin-7-yI)-4-((2-amino-3-bromoquinolin-7-yl)methyl)hexahydropentalene-1,6a(1H)-diol] | 0.6
12 | Cc1cn([C@@H]2O[C@@H]3[C@H](Cc4ccc5cc(Br)c(N)nc5c4)CC[C@]3(O)[C@H]2O)c2ncnc(N)c12 [Example 70, (2R,3R,3aS,6S,6aR)-6-((2-amino-3-bromoquinolin-7-yl)methyl)-2-(4-amino-5-methyl-7H-pyrrolo[2,3-d]pyrimidin-7-yl)hexahydro-3aH-cyclopenta[b]furan-3,3a-diol 2,2,2-trifluoroacetate] | 1
13 | Nc1nc2cc(C[C@@H]3CC[C@@]4(O)[C@@H]3O[C@@H](n3cc(F)c5c(N)ncnc53)[C@@H]4O)cc(F)c2cc1F [Example 24, (2R,3R,3aS,6S,6aR)-6-((2-amino-3,5-difluoroquinolin-7-yl)methyl)-2-(4-amino-5-fluoro-7H-pyrrolo[2,3-d]pyrimidin-7-yl)hexahydro-3aH-cyclopenta[b]furan-3,3a-diol] | 1.3
14 | Nc1nc2cc(C[C@@H]3CC[C@@]4(O)[C@@H]3O[C@@H](n3ccc5c(N)nc(Cl)nc53)[C@@H]4O)ccc2cc1F [Example 48, (2R,3R,3aS,6S,6aR)-2-(4-amino-2-chloro-7H-pyrrolo[2,3-d]pyrimidin-7-yl)-6-[(2-amino-3-fluoroquinolin-7-yl)methyl]hexahydro-3aH-cyclopenta[b]furan-3,3a-diol] | 1.7
15 | Cc1ncnc2c1ccn2[C@@H]1O[C@@H]2[C@H](Cc3ccc4cc(C(F)(F)F)c(N)nc4c3)CC[C@]2(O)[C@H]1O [Example 88, (2R,3R,3aS,6S,6aR)-6-((2-amino-3-(trifluoromethyl)quinolin-7-yl)methyl)-2-(4-methyl-7H-pyrrolo[2,3-d]pyrimidin-7-yl)hexahydro-3aH-cyclopenta[b]furan-3,3a-diol] | 25.3
16 | Nc1nc2cc(O[C@H]3CC[C@@]4(O)[C@@H]3O[C@@H](n3cc(F)c5c(N)ncnc53)[C@@H]4O)ccc2cc1Cl [Example 74, (2R,3R,3aS,6S,6aR)-6-((2-amino-3-chloroquinolin-7-yl)oxy)-2-(4-amino-5-fluoro-7H-pyrrolo[2,3-d]pyrimidin-7-yl)hexahydro-3aH-cyclopenta[b]furan-3,3a-diol] | 1
17 | Nc1nc2cc(C[C@@H]3CC[C@@]4(O)[C@@H]3C[C@@H](n3ccc5c(N)ncnc53)[C@@H]4O)ccc2cc1Br [Example 41, (1S,2R,3aR,4S,6aR)-4-((2-amino-3-bromoquinolin-7-yl)methyl)-2-(4-amino-7H-pyrrolo[2,3-d]pyrimidin-7-yl)hexahydropentalene-1,6a (1H)-diol 2,2,2-trifluoroacetate] | 2.9
18 | Nc1ncnc2c1ccn2[C@@H]1O[C@@H]2[C@@H](Oc3ccc4cc5c(nc4c3)NCC5)CC[C@]2(O)[C@H]1O [Example 75, (2R,3R,3aS,6S,6aR)-2-(4-amino-7H-pyrrolo[2,3-d]pyrimidin-7-yl)-6-((2,3-dihydro-1H-pyrrolo[2,3-b]quinolin-7-yl)oxy)hexahydro-3aH-cyclopenta[b]furan-3,3a-diol] | 5
